In assay [1] the test system is A431 cells (human epidermoid carcinoma). As to the kind of experiment: In vitro tumor cell proliferation assay (Cell Titer-Glo luminescent cell viability), A431. It counts as cell-based. As to conditions: A-431, 72 h, 72 hours of drug exposure, ATP luminescence readout, read-out: IC50, anti-proliferative activity (inhibition of cell proliferation). An excerpt:
(§1) In vitro Tumor Cell Proliferation Assay
(§2) The tumor cell proliferation assay used to test the compounds of the present invention involves a readout called Cell Titer-Glow® Luminescent Cell Viability Assay developed by Promega® (Cunningham, B A “A Growing Issue: Cell Proliferation Assays, Modern kits ease quantification of cell growth” The Scientist 2001, 15(13), 26, and Crouch, S P et al., “The use of ATP bioluminescence as a measure of cell proliferation and cytotoxicity” Journal of Immunological Methods 1993, 160, 81-88), that measures inhibition of cell proliferation. Generation of a luminescent signal corresponds to the amount of ATP present, which is directly proportional to the number of metabolically active (proliferating) cells.
(§3) A431cells (human epidermoid carcinoma, ATCC […]) and BT474 (human breast carcinoma, ATCC […]) were plated at a density of 2.5×10^3 cells/well in 96 well black-clear bottom tissue culture plates in RPMI media with 10% Fetal Bovine Serum and incubated at 37° C. Twenty-four hours later, test compounds are added at a final concentration range from as high […] to as low 64 pM depend on the activities of the tested compounds in serial dilutions at a final DMSO concentration of 0.1%. Cells were incubated for 72 hours at 37° C. in complete growth media after addition of the test compound. After 72 hours of drug exposure, the plates were equilibrated to room temperature for approximately 30 min. Then, using a Promega Cell Titer Glo Luminescent® assay kit, lysis buffer containing 100 microliters of the enzyme luciferase and its substrate, luciferin mixture, was added to each well. The plates were mixed for 2 min on orbital shaker to ensure cell lysis and incubated for 10 min at room temperature to stabilize luminescence signal. The samples were read on VICTOR 2 using Luminescence protocol, and analyzed with Analyze5 software to generate IC50 values.

In assay [2] the test system is BT474 (human breast carcinoma). Kind of assay: In vitro tumor cell proliferation assay (Cell Titer-Glo luminescent cell viability), BT474. As to conditions: BT-474, 72 h, BT474 cells, 72 hours of drug exposure, ATP luminescence readout, read-out: IC50, anti-proliferative activity (inhibition of cell proliferation). It counts as cell-based.
Text: as §1, §2, §3

Consider 23 compounds from US8207172B2 (Bayer Intellectual Property GmbH, priority 2004, dated 2012).

Some results are limits rather than exact numbers.

On to `OCCNCCn1cc2c(n1)CCc1c-2sc2ncnc(Nc3ccc(F)c(Cl)c3)c12` [Example 19, 2-[(2-{6-[(3-chloro-4-fluorophenyl)amino]-4,5-dihydro-2H-pyrimido[5′,4′:4,5]thieno[2,3-e]indazol-2-yl}ethyl)amino]ethanol], for which the IC50 in assay [1] and in assay [2] was at most 5 µM throughout.
`COCCN(CCn1cc2c(n1)CCc1c-2sc2ncnc(Nc3ccc(F)c(Cl)c3)c12)C(C)C` [Example 21, N-(3-chloro-4-fluorophenyl)-2-{2-[isopropyl(2-methoxyethyl)amino]ethyl}-4,5-dihydro-2H-pyrimido[5′,4′:4,5]thieno[2,3-e]indazol-6-amine]: the IC50 in assay [1] and in assay [2] was at most 5 µM in each case.
For the compound `Fc1ccc(Nc2ncnc3sc4c(c23)CCc2nn(CCN3CCN(c5cnccn5)CC3)cc2-4)cc1Cl` [Example 22, N-(3-chloro-4-fluorophenyl)-2-[2-(4-pyrazin-2-ylpiperazin-1-yl)ethyl]-4,5-dihydro-2H-pyrimido[5′,4′:4,5]thieno[2,3-e]indazol-6-amine], the IC50 in assay [1] and in assay [2] was at most 5 µM throughout.
Consider `CCCN(CCOC)CCn1cc2c(n1)CCc1c-2sc2ncnc(Nc3ccc(F)c(Cl)c3)c12` [Example 23, N-(3-chloro-4-fluorophenyl)-2-{2-[(2-methoxyethyl)(propyl)amino]ethyl}-4,5-dihydro-2H-pyrimido[5′,4′:4,5]thieno[2,3-e]indazol-6-amine], for which the IC50 in assay [1] and in assay [2] was at most 5 µM throughout.
In the case of `CCN(CCOC)CCn1cc2c(n1)CCc1c-2sc2ncnc(Nc3ccc(F)c(Cl)c3)c12` [Example 24, N-(3-chloro-4-fluorophenyl)-2-{2-[ethyl(2-methoxyethyl)amino]ethyl}-4,5-dihydro-2H-pyrimido[5′,4′:4,5]thieno[2,3-e]indazol-6-amine], the IC50 in assay [1] and in assay [2] was at most 5 µM in each case.
`COCCN1CCN(CCn2cc3c(n2)CCc2c-3sc3ncnc(Nc4ccc(F)c(Cl)c4)c23)CC1` [Example 25, N-(3-chloro-4-fluorophenyl)-2-{2-[4-(2-methoxyethyl)piperazin-1-yl]ethyl}-4,5-dihydro-2H-pyrimido[5′,4′:4,5]thieno[2,3-e]indazol-6-amine]: the IC50 in assay [1] and in assay [2] was at most 5 µM in each case.
On to `OCCN(CCO)CCn1cc2c(n1)CCc1c-2sc2ncnc(Nc3ccc(F)c(Cl)c3)c12` [Example 26, 2,2′-[(2-{6-[(3-chloro-4-fluorophenyl)amino]-4,5-dihydro-2H-pyrimido[5′,4′:4,5]thieno[2,3-e]indazol-2-yl}ethyl)imino]diethanol], for which the IC50 in assay [1] and in assay [2] was at most 5 µM each time.
Take `CC(C)(C)OC(=O)N1CCN(CCn2cc3c(n2)CCc2c-3sc3ncnc(Nc4ccc(F)c(Cl)c4)c23)CC1` [Example 27, tert-butyl 4-(2-{6-[(3-chloro-4-fluorophenyl)amino]-4,5-dihydro-2H-pyrimido[5′,4′:4,5]thieno[2,3-e]indazol-2-yl}ethyl)piperazine-1-carboxylate]: the IC50 in assay [1] and in assay [2] was at most 5 µM each time.
Turning to `COC[C@H]1CCCN1CCn1cc2c(n1)CCc1c-2sc2ncnc(Nc3ccc(F)c(Cl)c3)c12` [Example 28, N-(3-chloro-4-fluorophenyl)-2-{2-[(2R)-2-(methoxymethyl)pyrrolidin-1-yl]ethyl}-4,5-dihydro-2H-pyrimido[5′,4′:4,5]thieno[2,3-e]indazol-6-amine], the IC50 in assay [1] and in assay [2] was at most 5 µM throughout.
Take `OC[C@H]1CCCN1CCn1cc2c(n1)CCc1c-2sc2ncnc(Nc3ccc(F)c(Cl)c3)c12` [Example 29, [(2R)-1-(2-{6-[(3-chloro-4-fluorophenyl)amino]-4,5-dihydro-2H-pyrimido[5′,4′:4,5]thieno[2,3-e]indazol-2-yl}ethyl)pyrrolidin-2-yl]methanol]: the IC50 in assay [1] and in assay [2] was at most 5 µM each time.
With `O[C@H]1CCN(CCn2cc3c(n2)CCc2c-3sc3ncnc(Nc4ccc(F)c(Cl)c4)c23)C1` [Example 30, (3S)-1-(2-{6-[(3-chloro-4-fluorophenyl)amino]-4,5-dihydro-2H-pyrimido[5′,4′:4,5]thieno[2,3-e]indazol-2-yl}ethyl)pyrrolidin-3-ol], the IC50 in assay [1] and in assay [2] was at most 5 µM in each case.
Consider `COC[C@@H]1CCCN1CCn1cc2c(n1)CCc1c-2sc2ncnc(Nc3ccc(F)c(Cl)c3)c12` [Example 31, N-(3-chloro-4-fluorophenyl)-2-{2-[(2S)-2-(methoxymethyl)pyrrolidin-1-yl]ethyl}-4,5-dihydro-2H-pyrimido[5′,4′:4,5]thieno[2,3-e]indazol-6-amine], for which the IC50 in assay [1] and in assay [2] was at most 5 µM in each case.
Regarding `OC[C@@H]1CCCN1CCn1cc2c(n1)CCc1c-2sc2ncnc(Nc3ccc(F)c(Cl)c3)c12` [Example 32, [(2S)-1-(2-{6-[(3-chloro-4-fluorophenyl)amino]-4,5-dihydro-2H-pyrimido[5′,4′:4,5]thieno[2,3-e]indazol-2-yl}ethyl)pyrrolidin-2-yl]methanol], the IC50 in assay [1] and in assay [2] was at most 5 µM throughout.
For `O[C@@H]1CCN(CCn2cc3c(n2)CCc2c-3sc3ncnc(Nc4ccc(F)c(Cl)c4)c23)C1` [Example 33, (3R)-1-(2-{6-[(3-chloro-4-fluorophenyl)amino]-4,5-dihydro-2H-pyrimido[5′,4′:4,5]thieno[2,3-e]indazol-2-yl}ethyl)-pyrrolidin-3-ol], the IC50 in assay [1] and in assay [2] was at most 5 µM in each case.
Take `COC(=O)[C@@H]1CCCN1CCn1cc2c(n1)CCc1c-2sc2ncnc(Nc3ccc(F)c(Cl)c3)c12` [Example 34, methyl 1-(2-{6-[(3-chloro-4-fluorophenyl)amino]-4,5-dihydro-2H-pyrimido[5′,4′:4,5]thieno[2,3-e]indazol-2-yl}ethyl)-L-prolinate]: the IC50 in assay [1] and in assay [2] was at most 5 µM each time.
Consider `Fc1ccc(Nc2ncnc3sc4c(c23)CCc2nn(CCN3CCSCC3)cc2-4)cc1Cl` [Example 35, N-(3-chloro-4-fluorophenyl)-2-(2-thiomorpholin-4-ylethyl)-4,5-dihydro-2H-pyrimido[5′,4′:4,5]thieno[2,3-e]indazol-6-amine], for which the IC50 in assay [1] and in assay [2] was at most 5 µM each time.
On to `CCN1CCN(CCn2cc3c(n2)CCc2c-3sc3ncnc(Nc4ccc(F)c(Cl)c4)c23)CC1` [Example 36, N-(3-chloro-4-fluorophenyl)-2-[2-(4-ethylpiperazin-1-yl)ethyl]-4,5-dihydro-2H-pyrimido[5′,4′:4,5]thieno[2,3-e]indazol-6-amine], for which the IC50 in assay [1] and in assay [2] was at most 5 µM each time.
Regarding `Cc1nccn1CCn1cc2c(n1)CCc1c-2sc2ncnc(Nc3ccc(F)c(Cl)c3)c12` [Example 37, N-(3-chloro-4-fluorophenyl)-2-[2-(2-methyl-1H-imidazol-1-yl)ethyl]-4,5-dihydro-2H-pyrimido[5′,4′:4,5]thieno[2,3-e]indazol-6-amine], the IC50 in assay [1] and in assay [2] was at most 5 µM throughout.
In the case of `CCc1nccn1CCn1cc2c(n1)CCc1c-2sc2ncnc(Nc3ccc(F)c(Cl)c3)c12` [Example 38, N-(3-chloro-4-fluorophenyl)-2-[2-(2-ethyl-1H-imidazol-1-yl)ethyl]-4,5-dihydro-2H-pyrimido[5′,4′:4,5]thieno[2,3-e]indazol-6-amine], the IC50 in assay [1] and in assay [2] was at most 5 µM throughout.
For the compound `CN1CCN(CCn2cc3c(n2)CCc2c-3sc3ncnc(Nc4ccc5c(cnn5Cc5ccccc5)c4)c23)CC1` [Example 39, N-(1-benzyl-1H-indazol-5-yl)-2-[2 (4-methylpiperazin-1-yl)ethyl]-4,5-dihydro-2H-pyrimido[5′,4′:4,5]thieno[2,3-e]indazol-6-amine], the IC50 was at most 50 µM in assay [1] and at most 1 µM in assay [2].
On the same counts, the results for `Fc1ccc(Nc2ncnc3sc4c(c23)CCc2n[nH]cc2-4)cc1Cl` [Example 40, N-(3-chloro-4-fluorophenyl)-4,5-dihydro-2H-pyrimido[5′,4′:4,5]thieno[2,3-e]indazol-6-amine] are at most 5 µM and at most 5 µM.
The corresponding values for `CCCc1nccn1CCn1cc2c(n1)CCc1c-2sc2ncnc(Nc3ccc(F)c(Cl)c3)c12` [Example 41, N-(3-chloro-4-fluorophenyl)-2-[2-(2-propyl-1H-imidazol-1-yl)ethyl]-4,5-dihydro-2H-pyrimido[5′,4′:4,5]thieno[2,3-e]indazol-6-amine] are at most 5 µM and at most 5 µM.
On the same counts, the results for `CC(C)c1nccn1CCn1cc2c(n1)CCc1c-2sc2ncnc(Nc3ccc(F)c(Cl)c3)c12` [Example 42, N-(3-chloro-4-fluorophenyl)-2-[2-(2-isopropyl-1H-imidazol-1-yl)ethyl]-4,5-dihydro-2H-pyrimido[5′,4′:4,5]thieno[2,3-e]indazol-6-amine] are at most 5 µM and at most 5 µM.
